Tests used:
[1] = DRUGMATRIX: Nicotinic Acetylcholine radioligand binding (ligand: [125I] Epibatidine); type: cell membranes, Membrane; settings: imr-32; Not Active = under 50% inhibition at 10 µM
[2] = biological target: 5-hydroxytryptamine receptor 6 (Homo sapiens, UniProt P50406); type: cell membranes, HeLa, Membrane; settings: hela; note: in other assays of this panel Not Active means under 50% inhibition at 10 µM
[3] = biological target: Sigma non-opioid intracellular receptor 1 (Homo sapiens, UniProt Q99720); assay: DRUGMATRIX: Sigma1 radioligand binding (ligand: [3H] Haloperidol); type: cell membranes, Jurkat, Membrane; settings: jurkat; Not Active = under 50% inhibition at 10 µM
[4] = DRUGMATRIX: ATPase, Na+/K+ enzyme inhibition (substrate: ATP); type: tissue-based, Sus scrofa, Heart; settings: Not Active = under 50% inhibition at 10 µM
[5] = DRUGMATRIX: GABAA, Muscimol, Central radioligand binding (ligand: [3H] Muscimol); type: cell membranes, Rattus norvegicus, Wistar, Brain, Membrane; settings: Not Active = under 50% inhibition at 10 µM
[6] = biological target: Kappa-type opioid receptor (Homo sapiens, UniProt P41145); assay: DRUGMATRIX: Opiate kappa (OP2, KOP) radioligand binding (ligand: [3H] Diprenorphine); type: cell membranes, HEK293, Membrane; settings: hek293; Not Active = under 50% inhibition at 10 µM
[7] = biological target: T1, 5-hydroxytryptamine receptor 2C (Homo sapiens, UniProt P28335); assay: DRUGMATRIX: Serotonin (5-Hydroxytryptamine) 5-HT2C radioligand binding (ligand: [3H] Mesulergine); type: cell membranes, CHO-K1, Membrane; settings: cho-k1; Not Active = under 50% inhibition at 10 µM
T1 sequence (P28335 whole entry): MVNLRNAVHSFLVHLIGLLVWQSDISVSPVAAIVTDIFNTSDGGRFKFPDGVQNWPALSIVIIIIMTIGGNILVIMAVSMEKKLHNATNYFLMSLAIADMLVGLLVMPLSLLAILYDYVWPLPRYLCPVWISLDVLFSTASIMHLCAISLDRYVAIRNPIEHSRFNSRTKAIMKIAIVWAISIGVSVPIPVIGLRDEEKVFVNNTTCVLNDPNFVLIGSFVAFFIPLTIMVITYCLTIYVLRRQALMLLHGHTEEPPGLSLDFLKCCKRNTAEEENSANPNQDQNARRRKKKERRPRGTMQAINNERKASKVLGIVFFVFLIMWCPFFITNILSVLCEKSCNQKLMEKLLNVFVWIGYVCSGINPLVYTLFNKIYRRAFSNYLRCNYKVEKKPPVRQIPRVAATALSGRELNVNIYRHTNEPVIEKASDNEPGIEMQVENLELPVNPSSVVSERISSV

Mu-type opioid receptor = Mu-type opioid receptor (Homo sapiens, UniProt P35372); assay: DRUGMATRIX: Opiate mu (OP3, MOP) radioligand binding (ligand: [3H] Diprenorphine); type: cell membranes, CHO-K1, Membrane; settings: cho-k1; Not Active = under 50% inhibition at 10 µM
[8] = biological target: Beta-1 adrenergic receptor (Homo sapiens, UniProt P08588); assay: DRUGMATRIX: Adrenergic beta1 radioligand binding (ligand: [125I] Cyanopindolol); type: cell membranes, CHO-K1, Membrane; settings: cho-k1; Not Active = under 50% inhibition at 10 µM
Melanocortin receptor 4 = Melanocortin receptor 4 (Homo sapiens, UniProt P32245); type: cell membranes, Membrane; settings: hek293; note: in other assays of this panel Not Active means under 50% inhibition at 10 µM
[9] = biological target: T2, Neuropeptide Y receptor type 2 (Homo sapiens, UniProt P49146); type: cell membranes, Membrane; settings: kan-ts; note: in other assays of this panel Not Active means under 50% inhibition at 10 µM
T2 sequence (P49146 whole entry): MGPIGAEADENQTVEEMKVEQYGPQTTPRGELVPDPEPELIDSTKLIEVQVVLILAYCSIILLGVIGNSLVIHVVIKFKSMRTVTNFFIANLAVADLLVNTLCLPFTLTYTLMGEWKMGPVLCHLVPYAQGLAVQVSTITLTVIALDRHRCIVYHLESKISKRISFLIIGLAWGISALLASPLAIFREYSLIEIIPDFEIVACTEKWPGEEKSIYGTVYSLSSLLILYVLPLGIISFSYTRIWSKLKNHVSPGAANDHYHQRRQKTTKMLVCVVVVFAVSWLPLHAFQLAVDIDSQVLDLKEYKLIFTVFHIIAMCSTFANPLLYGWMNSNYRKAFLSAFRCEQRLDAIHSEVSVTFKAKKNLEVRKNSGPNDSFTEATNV

[10] = DRUGMATRIX: Calcium Channel Type L, Phenylalkylamine radioligand binding (ligand: [3H] (-)-Desmethoxyverapamil (D-888)); type: cell membranes, Rattus norvegicus, Wistar, Brain, Membrane; settings: Not Active = under 50% inhibition at 10 µM
[11] = DRUGMATRIX: Calcium Channel Type L, Benzothiazepine radioligand binding (ligand: [3H] Diltiazem); type: cell membranes, Rattus norvegicus, Wistar, Brain, Membrane; settings: Not Active = under 50% inhibition at 10 µM
[12] = DRUGMATRIX: Serotonin (5-Hydroxytryptamine) 5-HT3 radioligand binding (ligand: [3H] GR-65630); type: cell membranes, Membrane; settings: hek293; Not Active = under 50% inhibition at 10 µM
[13] = DRUGMATRIX: Glutamate, Kainate radioligand binding (ligand: [3H] Kainic acid); type: cell membranes, Rattus norvegicus, Wistar, Brain, Membrane; settings: Not Active = under 50% inhibition at 10 µM
[14] = biological target: T3, Alpha-1B adrenergic receptor (Rattus norvegicus, UniProt P15823); assay: DRUGMATRIX: Alpha-1B adrenergic receptor radioligand binding (ligand: prazosin); type: cell membranes, Wistar, Liver, Membrane; settings: Not Active = under 50% inhibition at 10 µM
T3 sequence (P15823 whole entry): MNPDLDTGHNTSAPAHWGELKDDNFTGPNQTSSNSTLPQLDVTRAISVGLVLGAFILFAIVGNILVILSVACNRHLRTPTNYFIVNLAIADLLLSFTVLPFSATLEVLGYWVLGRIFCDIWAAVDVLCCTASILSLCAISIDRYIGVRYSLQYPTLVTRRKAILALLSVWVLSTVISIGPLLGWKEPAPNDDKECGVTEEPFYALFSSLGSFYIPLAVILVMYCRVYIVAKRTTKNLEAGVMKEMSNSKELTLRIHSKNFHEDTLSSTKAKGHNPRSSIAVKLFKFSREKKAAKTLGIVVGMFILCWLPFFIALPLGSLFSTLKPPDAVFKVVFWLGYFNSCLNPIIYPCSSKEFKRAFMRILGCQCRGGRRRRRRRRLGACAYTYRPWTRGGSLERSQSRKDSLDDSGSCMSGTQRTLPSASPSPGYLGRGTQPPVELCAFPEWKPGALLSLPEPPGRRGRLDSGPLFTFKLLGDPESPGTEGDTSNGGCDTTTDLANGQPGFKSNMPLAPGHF

Endothelin-1 receptor = biological target: T4, Endothelin-1 receptor (Homo sapiens, UniProt P25101); type: cell membranes, Membrane; settings: cho-k1; note: in other assays of this panel Not Active means under 50% inhibition at 10 µM
T4 sequence (P25101 whole entry): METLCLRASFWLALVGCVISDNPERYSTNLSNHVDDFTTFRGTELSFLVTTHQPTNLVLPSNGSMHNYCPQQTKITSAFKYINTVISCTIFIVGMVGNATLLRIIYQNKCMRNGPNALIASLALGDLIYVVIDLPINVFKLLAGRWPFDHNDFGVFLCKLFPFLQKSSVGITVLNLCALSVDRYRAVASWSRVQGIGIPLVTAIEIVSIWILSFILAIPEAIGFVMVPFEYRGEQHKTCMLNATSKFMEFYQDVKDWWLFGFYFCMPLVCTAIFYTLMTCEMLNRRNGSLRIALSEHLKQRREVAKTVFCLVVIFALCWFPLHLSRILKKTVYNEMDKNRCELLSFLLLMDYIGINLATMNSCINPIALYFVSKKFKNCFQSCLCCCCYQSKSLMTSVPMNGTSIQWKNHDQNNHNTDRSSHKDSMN

Sigma non-opioid intracellular receptor 1, sequence (Q99720 whole entry): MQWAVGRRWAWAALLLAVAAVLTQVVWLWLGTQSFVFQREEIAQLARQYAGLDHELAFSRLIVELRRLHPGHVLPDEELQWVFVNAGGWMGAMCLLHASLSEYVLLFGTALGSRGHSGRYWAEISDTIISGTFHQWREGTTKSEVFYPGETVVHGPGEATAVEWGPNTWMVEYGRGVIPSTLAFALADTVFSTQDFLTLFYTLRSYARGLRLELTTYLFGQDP
Mu-type opioid receptor, sequence (P35372 whole entry): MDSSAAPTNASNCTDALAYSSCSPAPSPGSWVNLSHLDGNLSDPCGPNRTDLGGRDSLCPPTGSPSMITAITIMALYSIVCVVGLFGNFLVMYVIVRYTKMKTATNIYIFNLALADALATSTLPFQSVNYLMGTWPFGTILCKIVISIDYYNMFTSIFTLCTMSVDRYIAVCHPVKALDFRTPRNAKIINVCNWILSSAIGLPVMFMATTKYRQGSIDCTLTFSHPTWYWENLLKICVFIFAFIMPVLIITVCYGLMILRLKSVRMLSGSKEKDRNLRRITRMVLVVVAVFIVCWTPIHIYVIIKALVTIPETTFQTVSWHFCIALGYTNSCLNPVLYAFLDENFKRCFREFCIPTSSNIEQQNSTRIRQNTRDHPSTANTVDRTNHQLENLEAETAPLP
Melanocortin receptor 4, sequence (P32245 whole entry): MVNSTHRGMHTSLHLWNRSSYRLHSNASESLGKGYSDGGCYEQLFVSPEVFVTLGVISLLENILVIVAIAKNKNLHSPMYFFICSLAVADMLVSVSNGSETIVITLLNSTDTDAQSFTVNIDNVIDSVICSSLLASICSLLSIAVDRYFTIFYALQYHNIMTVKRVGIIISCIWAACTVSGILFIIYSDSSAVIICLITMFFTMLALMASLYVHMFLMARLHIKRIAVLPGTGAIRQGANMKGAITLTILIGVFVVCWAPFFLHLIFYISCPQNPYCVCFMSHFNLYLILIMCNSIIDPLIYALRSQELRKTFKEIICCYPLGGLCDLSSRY
Beta-1 adrenergic receptor, sequence (P08588 whole entry): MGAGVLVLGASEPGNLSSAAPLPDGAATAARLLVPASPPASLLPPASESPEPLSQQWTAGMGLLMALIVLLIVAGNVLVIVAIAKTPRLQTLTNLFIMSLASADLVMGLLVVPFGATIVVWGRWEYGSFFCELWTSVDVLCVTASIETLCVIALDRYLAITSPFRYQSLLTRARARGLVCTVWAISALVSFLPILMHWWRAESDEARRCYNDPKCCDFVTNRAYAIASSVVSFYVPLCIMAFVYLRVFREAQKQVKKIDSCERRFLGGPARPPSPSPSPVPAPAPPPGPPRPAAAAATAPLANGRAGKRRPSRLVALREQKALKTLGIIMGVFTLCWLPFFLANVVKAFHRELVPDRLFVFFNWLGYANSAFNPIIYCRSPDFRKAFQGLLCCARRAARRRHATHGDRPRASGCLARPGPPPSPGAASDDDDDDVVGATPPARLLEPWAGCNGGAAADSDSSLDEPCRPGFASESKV
Kappa-type opioid receptor, sequence (P41145 whole entry): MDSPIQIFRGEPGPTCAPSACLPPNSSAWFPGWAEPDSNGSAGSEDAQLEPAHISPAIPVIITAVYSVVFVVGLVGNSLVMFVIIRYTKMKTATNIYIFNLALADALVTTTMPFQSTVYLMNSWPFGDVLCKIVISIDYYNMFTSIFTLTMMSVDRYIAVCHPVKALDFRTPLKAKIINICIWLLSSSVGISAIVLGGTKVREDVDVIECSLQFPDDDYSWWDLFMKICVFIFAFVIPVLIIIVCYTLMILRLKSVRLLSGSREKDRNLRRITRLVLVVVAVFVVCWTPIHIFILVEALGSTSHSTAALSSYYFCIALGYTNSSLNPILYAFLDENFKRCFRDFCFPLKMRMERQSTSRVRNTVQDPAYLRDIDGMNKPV
5-hydroxytryptamine receptor 6, sequence (P50406 whole entry): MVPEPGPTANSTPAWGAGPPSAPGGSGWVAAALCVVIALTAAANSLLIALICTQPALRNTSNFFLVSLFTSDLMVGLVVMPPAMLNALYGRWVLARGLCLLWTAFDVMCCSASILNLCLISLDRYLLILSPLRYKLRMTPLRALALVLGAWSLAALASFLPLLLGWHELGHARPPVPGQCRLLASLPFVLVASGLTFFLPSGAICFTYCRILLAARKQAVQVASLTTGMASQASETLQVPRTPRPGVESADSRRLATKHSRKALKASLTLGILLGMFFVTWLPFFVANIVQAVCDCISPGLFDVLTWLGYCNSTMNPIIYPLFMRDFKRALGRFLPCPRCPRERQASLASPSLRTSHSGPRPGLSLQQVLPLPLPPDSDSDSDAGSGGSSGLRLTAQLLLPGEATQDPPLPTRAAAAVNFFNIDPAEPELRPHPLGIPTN

For `CC[C@H]1OC(=O)[C@H](C)[C@@H](O[C@H]2C[C@@](C)(OC)[C@@H](O)[C@H](C)O2)[C@H](C)[C@@H](O[C@@H]2O[C@H](C)C[C@H](N(C)C)[C@H]2O)[C@](C)(O)C[C@@H](C)/C(=N\OCOCCOC)[C@H](C)[C@@H](O)[C@]1(C)O` [ROXITHROMYCIN], the IC50 [1] was “Not Active”, the Ki [1] was “Not Active” and the IC50 [2] was “Not Active”. For the same compound, the IC50 [3] was “Not Active”, the IC50 [4] was “Not Active” and the Ki [4] was “Not Active”. For the same compound, the IC50 [5] was “Not Active”, the Ki [5] was “Not Active” and the IC50 [6] was “Not Active”. For the same compound, the IC50 [7] was “Not Active”, the IC50 (Mu-type opioid receptor) was “Not Active” and the IC50 [8] was “Not Active”. The IC50 (Melanocortin receptor 4) was “Not Active”, the IC50 [9] was “Not Active” and the IC50 [10] was “Not Active”. For the same compound, the Ki [10] was “Not Active”, the IC50 [11] was “Not Active” and the Ki [11] was “Not Active”. For the same compound, the IC50 [12] was “Not Active”, the Ki [12] was “Not Active” and the IC50 [13] was “Not Active”. The Ki [13] was “Not Active”, the IC50 ([14]; read-out: IC50) was 0.989 µM and the Ki ([14]; read-out: Ki) was 0.548 µM. For the same compound, the IC50 (Endothelin-1 receptor) was “Not Active”.

For `Nc1ccc(S(=O)(=O)Nc2ccnn2-c2ccccc2)cc1` [SULFAPHENAZOLE], the IC50 [1] was “Not Active”, the Ki [1] was “Not Active” and the IC50 [2] was “Not Active”. For the same compound, the IC50 [3] was “Not Active”, the IC50 [4] was “Not Active” and the Ki [4] was “Not Active”. For the same compound, the IC50 [5] was “Not Active”, the Ki [5] was “Not Active” and the IC50 [6] was “Not Active”. For the same compound, the IC50 [7] was “Not Active”, the IC50 (Mu-type opioid receptor) was “Not Active” and the IC50 [8] was “Not Active”. For the same compound, the IC50 (Melanocortin receptor 4) was “Not Active”, the IC50 [9] was “Not Active” and the IC50 [10] was “Not Active”. The Ki [10] was “Not Active”, the IC50 [11] was “Not Active” and the Ki [11] was “Not Active”. The IC50 [12] was “Not Active”, the Ki [12] was “Not Active” and the IC50 [13] was “Not Active”. For the same compound, the Ki [13] was “Not Active”, the IC50 [14] was “Not Active” and the IC50 (Endothelin-1 receptor) was “Not Active”.

For `CCOC(=O)[C@H](CCc1ccccc1)N[C@@H](C)C(=O)N1[C@H](C(=O)O)C[C@@H]2CCC[C@@H]21`, the IC50 [1] was “Not Active”, the Ki [1] was “Not Active” and the IC50 [2] was “Not Active”. The IC50 [3] was “Not Active”, the IC50 [4] was “Not Active” and the Ki [4] was “Not Active”. The IC50 [5] was “Not Active”, the Ki [5] was “Not Active” and the IC50 [6] was “Not Active”. The IC50 [7] was “Not Active”, the IC50 (Mu-type opioid receptor) was “Not Active” and the IC50 [8] was “Not Active”. For the same compound, the IC50 (Melanocortin receptor 4) was “Not Active”, the IC50 [9] was “Not Active” and the IC50 [10] was “Not Active”. For the same compound, the Ki [10] was “Not Active”, the IC50 [11] was “Not Active” and the Ki [11] was “Not Active”. For the same compound, the IC50 [12] was “Not Active”, the Ki [12] was “Not Active” and the IC50 [13] was “Not Active”. For the same compound, the Ki [13] was “Not Active”, the IC50 [14] was “Not Active” and the IC50 (Endothelin-1 receptor) was “Not Active”.

For `NCCCC[C@H](N[C@@H](CCc1ccccc1)C(=O)O)C(=O)N1CCC[C@H]1C(=O)O` [LISINOPRIL ANHYDROUS], the IC50 [1] was “Not Active”, the Ki [1] was “Not Active” and the IC50 [2] was “Not Active”. For the same compound, the IC50 [3] was “Not Active”, the IC50 [4] was “Not Active” and the Ki [4] was “Not Active”. The IC50 [5] was “Not Active”, the Ki [5] was “Not Active” and the IC50 [6] was “Not Active”. The IC50 [7] was “Not Active”, the IC50 (Mu-type opioid receptor) was “Not Active” and the IC50 [8] was “Not Active”. For the same compound, the IC50 (Melanocortin receptor 4) was “Not Active”, the IC50 [9] was “Not Active” and the IC50 [10] was “Not Active”. For the same compound, the Ki [10] was “Not Active”, the IC50 [11] was “Not Active” and the Ki [11] was “Not Active”. For the same compound, the IC50 [12] was “Not Active”, the Ki [12] was “Not Active” and the IC50 [13] was “Not Active”. For the same compound, the Ki [13] was “Not Active”, the IC50 [14] was “Not Active” and the IC50 (Endothelin-1 receptor) was “Not Active”.

From ChEMBL document CHEMBL1909046, “DrugMatrix in vitro pharmacology data”
